# Assay results reported in patent US10004739B2, “Methods for treating cancer by inhibiting FGFR3/TACC3 fusion protein” (Astellas Pharma Inc., priority 2012, dated 2018).
# What was measured:
# [1] = test system: FGFR3-TACC3_v1 (N-FLAG) fusion polypeptide; test: In vitro kinase activity of FGFR3-TACC3_v1 (N-FLAG) fusion polypeptide (HTRF KinEASE-TK, peptide substrate); assay type: biochemical, human; conditions: ATP 100 μM
# [2] = test system: FGFR3-TACC3_v2 (N-FLAG) fusion polypeptide; test: In vitro kinase activity of FGFR3-TACC3_v2 (N-FLAG) fusion polypeptide (HTRF KinEASE-TK, peptide substrate); assay type: biochemical, human; conditions: ATP 100 μM
# [3] = test system: FGFR3-TACC3_v3 (N-FLAG) fusion polypeptide; test: In vitro kinase activity of FGFR3-TACC3_v3 (N-FLAG) fusion polypeptide (HTRF KinEASE-TK, peptide substrate); assay type: biochemical, human; conditions: ATP 100 μM
# RT-112 cells = test: Anchorage-independent proliferation of RT-112 bladder cancer cell line, spheroid plate, CellTiter-Glo; assay type: cell-based; conditions: Homo sapiens, RT-112, 120 h; final concentration 100 nM; Example 16: 2×10^3 cells per well, 5 days; read-out: growth inhibition rate (%), RT-112
# Method: Moreover, as a positive control, a well added only with the medium was prepared. […] As a negative control, DMSO as a vehicle of the compound was added thereto at the same concentration (0.1%) at the time of adding the compound. Thereafter, the cells were cultured for 5 days at 37° C. in the presence of 5% CO2, and a reagent for cell count measurement (CellTiter-Glo™ Luminescent Cell Viability Assay; Promega Corporation) was added thereto. The resultant was stirred for 20 minutes, and the cell count was measured using a luminometer.
# (§4) Moreover, the respective compounds were added such that the final concentration thereof became 100 nM, 10 nM, and 1 nM.
# [4] = test system: FGFR3-TACC3_v1 expression/NIH3T3 cells (tumors); test: Anti-tumorigenic activity in nude mice bearing subcutaneous tumors; assay type: in vivo; conditions: 30 mg/kg orally once a day for 11 days
# From the text: (§1) Cg-Foxn1Nu/Crlcrlj (Nu/Nu) nude mice (Charles River Laboratories, Japan) by means of subcutaneous injection performed in the back of the mice. Three days after the inoculation, AZD4547 and BGJ398 which are FGFR3-TACC3 fusion polypeptide inhibitors were started to be administered. For the test, 4 to 5 mice were assigned to each of the vehicle group and the compound group, AZD4547 and BGJ398 were suspended in a vehicle composed of 0.5% methyl cellulose (Shin-Etsu Chemical Co., Ltd.)/99.5% distilled water, and each of the compounds was orally administered at a dosage of 30 mg/kg. The administration was performed once a day for 11 days, and the body weight of mice and a tumor diameter were measured every 2 or 3 days. A tumor volume was calculated using the following formula. [Tumor volume (mm^3)]=[major axis of tumor (mm)]×[minor axis of tumor (mm)]^2×0.5
# [5] = test system: FGFR3-TACC3_v2 expression/NIH3T3 cells (tumors); test: as above; assay type: in vivo; conditions: 30 mg/kg orally once a day for 11 days
# From the text: as §1
# [6] = test system: FGFR3-TACC3_v3 expression/NIH3T3 cells (tumors); test: as above; assay type: in vivo; conditions: 30 mg/kg orally once a day for 11 days
# From the text: as §1
# [7] = target: T1, FGFR3-TACC3 fusion polypeptide v1 (Homo sapiens, UniProt P22607); test: Kinase inhibition in tumor: phosphorylated FGFR3/total FGFR3 by ELISA; assay type: in vivo, nude mice; conditions: 4 hours after the final administration; dosing as Example 13
# T1 construct: expressed in transfected cells; host or cells: NIH3T3 cells infected with FGFR3-TACC3_v1/pMXs-puro retrovirus, inoculated into nude mice
# Method: (§2) For the test, 5 mice were assigned to each of the vehicle group and the compound group, and 4 hours after the final administration, tumors were extracted by dissection. Thereafter, by using a lysis solution (Cell Lysis Buffer; Cell Signaling Technology, Inc., Phosphatase Inhibitor Cocktail; Thermo Fisher Scientific Inc., Complete; Roche, Ltd.), protein extracts of the tumors were rapidly prepared, and the total FGFR3 level and a phosphorylated FGFR3 level of the tumors were measured using an ELISA kit (R&D Systems). ELISA was performed according to the attached procedure manual, but detection was performed in a different way in which the chemiluminescence detection is conducted using a chemiluminescent reagent (BM chemiluminescence ELISA substrate; Roche, Ltd.) and a luminometer (ARVO; PerkinElmer Inc.).
# (§3) A level obtained by correcting the phosphorylated FGFR3 level by using the total FGFR3 level (phosphorylated FGFR3 level/total FGFR3 level) was taken as a phosphorylation level.
# FGFR3-TACC3_v2 = target: T2, FGFR3-TACC3_v2 (Homo sapiens, UniProt P22607, F384L); test: as above; assay type: in vivo, nude mice; conditions: 4 hours after the final administration; dosing as Example 13
# T2 construct: in order to express a full length of ORF of FGFR3-TACC3_v2 as a protein; expressed in transfected cells; host or cells: NIH3T3 cells infected with FGFR3-TACC3_v2/pMXs-puro retrovirus, inoculated into nude mice
# Method: as §2, §3
# FGFR3-TACC3_v3 = target: T3, FGFR3-TACC3_v3 (Homo sapiens, UniProt P22607); test: as above; assay type: in vivo, nude mice; conditions: 4 hours after the final administration; dosing as Example 13
# T3 construct: in order to express a full length of ORF of FGFR3-TACC3_v3 as a protein; expressed in transfected cells; host or cells: NIH3T3 cells infected with FGFR3-TACC3_v3/pMXs-puro retrovirus, inoculated into nude mice
# Method: as §2, §3
# [8] = test system: cells expressing FGFR3-TACC3 fusion gene; conditions: reported in Science 2012; 337:1231-5; cited from earlier work
# [9] = test system: FGFR3-TACC3_v1 expression/NIH3T3 cells; test: Anchorage-independent cell proliferation, spheroid plate, CellTiter-Glo; conditions: Mus musculus, NIH3T3, 96 h, read-out: growth inhibition rate (%), v1
# Method: (§5) The FGFR3-TACC3_v1 expression/NIH3T3 cells were seeded in a 96-well spheroid plate (Sumilon Cell-Tight Spheroid 96U; SUMITOMO BAKELITE CO., LTD.) with D-MEM containing 10% fetal bovine serum, such that the cell count in each well became 1×10^3. Moreover, as a positive control, a well added only with the medium was prepared. […] As a negative control, DMSO as a vehicle of the compound was added thereto at the same concentration (0.1%) as set at the time of adding the compound. Thereafter, the cells were cultured for 4 days at 37° C. in the presence of 5% CO2, and a reagent for cell count measurement (CellTiter-Glo™ Luminescent Cell Viability Assay; Promega Corporation) was added thereto. The resultant was stirred for 20 minutes, and the cell count was measured using a luminometer.
# as §4
# [10] = test system: FGFR3-TACC3_v2 expression/NIH3T3 cells; test: as above; conditions: Mus musculus, NIH3T3, 96 h, read-out: growth inhibition rate (%), v2
# Method: as §5, §4
# [11] = test system: FGFR3-TACC3_v3 expression/NIH3T3 cells; test: as above; conditions: Mus musculus, NIH3T3, 96 h, read-out: growth inhibition rate (%), v3
# Method: as §5, §4
compound,measurement,setting,value
CCN1CCN(c2ccc(Nc3cc(N(C)C(=O)Nc4c(Cl)c(OC)cc(OC)c4Cl)ncn3)cc2)CC1 [BGJ398],Inhibition against peptide substrate FGFR3-TACC3 v1,[1]; final concentration 1 nM,26%
same,Inhibition against peptide substrate FGFR3-TACC3 v1,[1]; final concentration 10 nM,47%
same,Inhibition against peptide substrate FGFR3-TACC3 v1,[1]; final concentration 100 nM,58%
same,Inhibition against peptide substrate FGFR3-TACC3 v2,[2]; final concentration 1 nM,8%
same,Inhibition against peptide substrate FGFR3-TACC3 v2,[2]; final concentration 10 nM,44%
same,Inhibition against peptide substrate FGFR3-TACC3 v2,[2]; final concentration 100 nM,79%
same,Inhibition against peptide substrate FGFR3-TACC3 v3,[3]; final concentration 1 nM,13%
same,Inhibition against peptide substrate FGFR3-TACC3 v3,[3]; final concentration 10 nM,38%
same,Inhibition against peptide substrate FGFR3-TACC3 v3,[3]; final concentration 100 nM,75%
same,inhibition at 0.1 µM,RT-112 cells,90%
same,inhibition of proliferation of tumors (tumor volume),[4],90%
same,inhibition of proliferation of tumors (tumor volume),[5],90%
same,inhibition of growth of tumors (tumor volume),[6],88%
same,reduction of tyrosine auto-phosphorylation in the tumor compared to the vehicle group,[7],77%
same,reduction of tyrosine auto-phosphorylation in the tumor compared to the vehicle group,FGFR3-TACC3_v2,66%
same,reduction of tyrosine auto-phosphorylation in the tumor compared to the vehicle group,FGFR3-TACC3_v3,85%
same,proliferation of cells expressing FGFR3-TACC3 fusion gene,[8],inhibited the proliferation
same,inhibition at 0.1 µM,[9],92%
same,inhibition at 0.1 µM,[10],90%
same,inhibition at 0.1 µM,[11],87%
